Assay results as given in patent US4758557A, “Cephalosporin derivatives and bactericides containing the same” (Meiji Seika Kaisha, Ltd., priority 1985, dated 1988).
Values after ≈ are worked out from the molar mass of the structure shown.

Assays:
Assay in all cases: MIC in agar plate culture-dilution assay
Assay type in all cases: cell-based
[1] = tested on: Bacillus subtilis ATCC 6633; conditions: ATCC6633; Bacillus subtilis ATCC 6633; agar plate culture-dilution; read-out: MIC
Description: (§1) The compounds of the formula (I) and salts thereof of the present invention are new, and have high and broad antibacterial activity capable of inhibiting the growth of pathogenic microorganisms of a broad range including gram-positive and gram-negative bacteria. In order to show the usability of the compounds of the formula (I), the antibacterial activity of some typical compounds of the formula (I) was actually measured, and the results are given in the following Table-1.
(§2) MIC in agar plate culture-dilution assay (Y/ml)

[2] = tested on: Citrobacter freundii GN-346; conditions: GN346; Citrobacter freundii GN-346; agar plate culture-dilution; read-out: MIC
Description: as §1, §2

[3] = tested on: Enterobacter cloacae GN-7471; conditions: GN7471; Enterobacter cloacae GN-7471; agar plate culture-dilution; read-out: MIC
Description: as §1, §2

[4] = tested on: Escherichia coli NIHJ JC-2; conditions: NIHJJC2
Description: as §1, §2

[5] = tested on: Klebsiella pneumoniae GN-69; conditions: GN69; Klebsiella pneumoniae GN-69; agar plate culture-dilution; read-out: MIC
Description: as §1, §2

[6] = tested on: Proteus rettgeri GN-624; conditions: Providencia rettgeri, GN624; Proteus rettgeri GN-624; agar plate culture-dilution; read-out: MIC
Description: as §1, §2

[7] = tested on: Proteus vulgaris GN-76; conditions: GN76; Proteus vulgaris GN-76; agar plate culture-dilution; read-out: MIC
Description: as §1, §2

[8] = tested on: Pseudomonas aeruginosa E-2; conditions: E2; Pseudomonas aeruginosa E-2; agar plate culture-dilution; read-out: MIC
Description: as §1, §2

[9] = tested on: Pseudomonas aeruginosa IAM-1007; conditions: IAM1007; Pseudomonas aeruginosa IAM-1007; agar plate culture-dilution; read-out: MIC
Description: as §1, §2

[10] = tested on: Pseudomonas aeruginosa M-0148; conditions: M0148; Pseudomonas aeruginosa M-0148; agar plate culture-dilution; read-out: MIC
Description: as §1, §2

[11] = tested on: Pseudomonas maltophilia M-0627; conditions: Stenotrophomonas maltophilia, M0627; Pseudomonas maltophilia M-0627; agar plate culture-dilution; read-out: MIC
Description: as §1, §2

[12] = tested on: Serratia marcescens No. 1; conditions: Serratia marcescens No. 1; agar plate culture-dilution; read-out: MIC
Description: as §1, §2

[13] = tested on: Staphylococcus aureus 209P JC-1; conditions: Staphylococcus aureus 209P JC-1; agar plate culture-dilution; read-out: MIC
Description: as §1, §2

[14] = tested on: Staphylococcus aureus Smith (1); conditions: Staphylococcus aureus Smith (1); agar plate culture-dilution; read-out: MIC
Description: as §1, §2

Row | MIC [1] [µg/mL] | MIC [2] [µg/mL] | MIC [3] [µg/mL] | MIC [4] [µg/mL] | MIC [5] [µg/mL] | MIC [6] [µg/mL] | MIC [7] [µg/mL] | MIC [8] [µg/mL] | MIC [9] [µg/mL] | MIC [10] [µg/mL] | MIC [11] [µg/mL] | MIC [12] [µg/mL] | MIC [13] [µg/mL] | MIC [14] [µg/mL] | Structure (SMILES)
1 | 3.13 (≈ 4.61 µM) | 0.39 (≈ 0.574 µM) | 0.78 (≈ 1.15 µM) | 0.05 (≈ 0.0736 µM) | 0.05 (≈ 0.0736 µM) | 0.2 (≈ 0.294 µM) | 0.1 (≈ 0.147 µM) | 0.1 (≈ 0.147 µM) | 0.39 (≈ 0.574 µM) | 0.39 (≈ 0.574 µM) | 1.56 (≈ 2.3 µM) | 0.2 (≈ 0.294 µM) | 3.13 (≈ 4.61 µM) | 3.13 (≈ 4.61 µM) | Cn1c(SCC2=C(C(=O)O)N3C(=O)[C@@H](NC(=O)C(NC(=O)c4cc(=O)c(O)cn4O)c4csc(N)n4)[C@H]3SC2)nnc(O)c1=O (stereo partly drawn) [Example 22, (6R,7R)7-[(RS)2-(2-Aminothaizol-4-yl)-2-(1,5-dihydroxy-4-pyridone-2-carboxamido)acetamido]-3-(4,5-dihydro-4-methyl-5-oxo-6-hydroxy-1,2,4-triazin-3-yl)thiomethyl-ceph-3-em-4-carboxylic acid]
2 | 3.13 (≈ 4.66 µM) | 0.2 (≈ 0.298 µM) | 0.78 (≈ 1.16 µM) | 0.1 (≈ 0.149 µM) | 0.05 (≈ 0.0744 µM) | 0.2 (≈ 0.298 µM) | 0.1 (≈ 0.149 µM) | < 0.025 | 0.2 (≈ 0.298 µM) | 0.2 (≈ 0.298 µM) | 0.78 (≈ 1.16 µM) | 0.39 (≈ 0.581 µM) | 1.56 (≈ 2.32 µM) | 3.13 (≈ 4.66 µM) | Nc1nc(C(NC(=O)c2cc(=O)c(O)cn2O)C(=O)N[C@@H]2C(=O)N3C(C(=O)O)=C(CSc4ccnc5c4CCC5)CS[C@H]23)cs1 (stereo partly shown) [Example 15]
